We go through 1 compound from the NIST ThermoML archive (doi:10.1021/acs.jced.8b00931).

Structures are written as SMILES. Numbers after ± are expanded uncertainties.

For series [1] the following is noted: Crystal; DSC.
A short description of series [2]: Molar enthalpy of transition or fusion. As to conditions: Crystal; DSC.

For `Nc1cc([N+](=O)[O-])ccc1Cl` [2-chloro-5-nitroaniline], the Triple point temperature in series [1] is 393.39 ± 1.2 K. Moreover, in series [2], the “Molar enthalpy of transition or fusion” value worked out at 6.46 ± 0.232 kcal/mol.
